Measured values: PMC11452294, “Periplasmic binding proteins Bug69 and Bug27 from Bordetella pertussis are in vitro high‐affinity quinolinate binders with a potential role in NAD biosynthesis” (FEBS Open Bio, 2024)

Tests used:
Bug27 = target: T1, Bug27 (Bordetella pertussis, UniProt Q7W019); test: intrinsic tryptophan fluorescence quenching titration; format: binding
T1 construct: gene BP0682; mature periplasmic domain, signal peptide omitted, pET28c NcoI/HindIII, C-terminal His tag kept; E. coli BL21(DE3); denatured and renatured to remove endogenous ligands
T1 sequence (Q7W019 30-330): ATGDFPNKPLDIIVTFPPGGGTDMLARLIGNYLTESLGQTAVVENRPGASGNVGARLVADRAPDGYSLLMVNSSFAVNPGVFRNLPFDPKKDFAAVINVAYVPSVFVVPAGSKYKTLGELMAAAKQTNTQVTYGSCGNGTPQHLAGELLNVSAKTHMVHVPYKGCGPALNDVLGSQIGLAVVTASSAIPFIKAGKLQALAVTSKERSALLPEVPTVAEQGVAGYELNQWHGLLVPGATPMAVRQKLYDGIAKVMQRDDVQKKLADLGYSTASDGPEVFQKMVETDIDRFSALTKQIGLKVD

Bug69 = target: T2, Bug69 (Bordetella pertussis, UniProt Q7VUA0); test: as above; format: binding; conditions: 20 °C; 0.1 μM protein; excitation 295 nm, fit at 328 nm
T2 construct: gene BP3219; mature periplasmic domain, signal peptide omitted, pET28c NcoI/XhoI, C-terminal His tag kept; E. coli BL21(DE3); denatured and renatured to remove endogenous ligands
T2 sequence (Q7VUA0 32-332): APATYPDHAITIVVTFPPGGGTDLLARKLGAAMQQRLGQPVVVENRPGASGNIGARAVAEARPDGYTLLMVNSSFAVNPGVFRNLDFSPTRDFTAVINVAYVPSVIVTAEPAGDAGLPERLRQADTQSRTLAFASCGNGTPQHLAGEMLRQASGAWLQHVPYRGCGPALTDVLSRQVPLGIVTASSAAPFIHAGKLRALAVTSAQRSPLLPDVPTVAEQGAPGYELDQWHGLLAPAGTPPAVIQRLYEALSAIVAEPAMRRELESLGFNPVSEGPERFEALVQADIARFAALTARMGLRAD

## O=C(O)c1cccnc1C(=O)O [quinolinate]
Bug27
  Kd: 0.136 ± 0.028 µM
Bug69
  Kd: 0.07 ± 0.022 µM
